Source: the kinase profiling compilation of Christmann-Franck et al. (2016)

Assays:
Experiment in all cases: radiometric filter-binding kinase assay, Kinase HotSpot
Details in all cases: compound 0.5 µM; ATP 10 µM
[1] = biological target: MYO3B (human) (UniProt Q8WXR4)
[2] = biological target: EPHA8 (human) (UniProt P29322)
[3] = biological target: WNK3 (human) (UniProt Q9BYP7)
[4] = biological target: SIK2 (human) (UniProt Q9H0K1)
[5] = biological target: DYRK3 (human) (UniProt O43781)
[6] = biological target: ACVRL1 (human) (UniProt P37023)
[7] = biological target: MAPK10 (human) (UniProt P53779)
[8] = biological target: JAK1 JH1 catalytic (human) (UniProt P23458)
[9] = biological target: CDK4 CCND1 (human) (UniProt P24385+P11802)
[10] = biological target: CAMK2A (human) (UniProt Q9UQM7)
[11] = biological target: OXSR1 (human) (UniProt O95747)
[12] = biological target: MAP3K11 (human) (UniProt Q16584)
[13] = biological target: RPS6KA4 KD2 (human) (UniProt O75676)
[14] = biological target: TAOK2 (human) (UniProt Q9UL54)
[15] = biological target: GSG2 (human) (UniProt Q8TF76)
[16] = system: PRKCQ (human), Q04759 [P330L]
Chain of PRKCQ (human), Q04759 [P330L] (Q04759 whole entry P330L, looked up): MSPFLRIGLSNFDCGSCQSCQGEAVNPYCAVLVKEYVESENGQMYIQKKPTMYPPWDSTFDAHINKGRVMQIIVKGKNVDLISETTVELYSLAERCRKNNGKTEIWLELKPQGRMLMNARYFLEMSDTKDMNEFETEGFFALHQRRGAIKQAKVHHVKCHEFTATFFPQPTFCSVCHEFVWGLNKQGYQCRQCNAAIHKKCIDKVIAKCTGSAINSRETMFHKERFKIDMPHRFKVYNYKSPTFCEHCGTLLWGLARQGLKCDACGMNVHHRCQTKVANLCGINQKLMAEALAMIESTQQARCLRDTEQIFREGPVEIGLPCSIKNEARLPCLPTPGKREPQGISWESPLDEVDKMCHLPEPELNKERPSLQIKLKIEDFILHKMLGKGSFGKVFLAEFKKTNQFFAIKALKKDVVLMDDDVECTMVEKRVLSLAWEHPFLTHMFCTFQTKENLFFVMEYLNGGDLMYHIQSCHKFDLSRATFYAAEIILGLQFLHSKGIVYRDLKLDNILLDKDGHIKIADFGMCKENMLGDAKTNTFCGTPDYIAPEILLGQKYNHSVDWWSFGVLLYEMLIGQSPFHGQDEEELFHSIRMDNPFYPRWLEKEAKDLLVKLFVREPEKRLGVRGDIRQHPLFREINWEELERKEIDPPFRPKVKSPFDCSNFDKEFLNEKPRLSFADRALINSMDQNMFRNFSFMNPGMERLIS

[17] = biological target: MARK1 (human) (UniProt Q9P0L2)
[18] = biological target: PRKCH (human) (UniProt P24723)
[19] = biological target: IRAK1 (human) (UniProt P51617)
[20] = biological target: LIMK1 (human) (UniProt P53667)
[21] = biological target: MAP3K8 (human) (UniProt P41279)
[22] = biological target: MERTK (human) (UniProt Q12866)
[23] = biological target: NLK (human) (UniProt Q9UBE8)
[24] = biological target: MLTK (human) (UniProt Q9NYL2)
[25] = biological target: MAPK13 (human) (UniProt O15264)
Chain of MAPK13 (human) (O15264 whole entry, looked up): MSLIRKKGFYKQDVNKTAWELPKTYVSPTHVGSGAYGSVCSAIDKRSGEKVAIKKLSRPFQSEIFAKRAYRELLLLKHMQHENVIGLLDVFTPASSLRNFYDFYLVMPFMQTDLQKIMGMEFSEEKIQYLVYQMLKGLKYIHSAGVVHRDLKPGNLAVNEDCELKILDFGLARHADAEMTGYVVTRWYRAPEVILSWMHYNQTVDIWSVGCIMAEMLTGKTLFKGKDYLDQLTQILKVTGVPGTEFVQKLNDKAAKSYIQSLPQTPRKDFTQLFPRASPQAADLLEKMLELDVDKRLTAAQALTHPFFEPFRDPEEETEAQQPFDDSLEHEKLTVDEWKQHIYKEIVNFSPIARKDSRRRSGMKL

[26] = biological target: STK24 (human) (UniProt Q9Y6E0)
[27] = biological target: SRC (human) (UniProt P12931)
[28] = biological target: ROCK1 (human) (UniProt Q13464)
[29] = biological target: NEK9 (human) (UniProt Q8TD19)
[30] = biological target: BRAF (human) (UniProt P15056)
Chain of BRAF (human) (P15056 whole entry, looked up): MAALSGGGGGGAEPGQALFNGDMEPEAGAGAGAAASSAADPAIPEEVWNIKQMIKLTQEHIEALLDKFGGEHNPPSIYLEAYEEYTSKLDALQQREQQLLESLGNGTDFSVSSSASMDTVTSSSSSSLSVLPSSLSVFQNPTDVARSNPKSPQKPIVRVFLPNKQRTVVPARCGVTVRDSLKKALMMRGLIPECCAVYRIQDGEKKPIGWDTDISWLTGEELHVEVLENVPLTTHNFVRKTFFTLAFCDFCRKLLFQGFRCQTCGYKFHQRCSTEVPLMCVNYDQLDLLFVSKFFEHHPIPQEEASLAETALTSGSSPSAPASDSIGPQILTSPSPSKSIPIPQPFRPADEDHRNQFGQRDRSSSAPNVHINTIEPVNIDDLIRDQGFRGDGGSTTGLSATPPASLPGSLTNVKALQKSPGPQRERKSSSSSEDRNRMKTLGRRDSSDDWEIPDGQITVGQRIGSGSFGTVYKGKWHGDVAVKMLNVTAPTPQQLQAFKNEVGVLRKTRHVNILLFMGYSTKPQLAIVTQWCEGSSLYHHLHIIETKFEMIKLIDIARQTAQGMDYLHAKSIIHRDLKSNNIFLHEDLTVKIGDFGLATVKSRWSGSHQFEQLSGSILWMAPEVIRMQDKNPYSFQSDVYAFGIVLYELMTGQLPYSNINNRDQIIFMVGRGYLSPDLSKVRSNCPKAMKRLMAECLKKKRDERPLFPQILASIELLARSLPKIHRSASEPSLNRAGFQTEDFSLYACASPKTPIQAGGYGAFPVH

[31] = biological target: CHEK1 (human) (UniProt O14757)
[32] = biological target: CDC42BPB (human) (UniProt Q9Y5S2)
[33] = biological target: HCK (human) (UniProt P08631)
Chain of HCK (human) (P08631 whole entry, looked up): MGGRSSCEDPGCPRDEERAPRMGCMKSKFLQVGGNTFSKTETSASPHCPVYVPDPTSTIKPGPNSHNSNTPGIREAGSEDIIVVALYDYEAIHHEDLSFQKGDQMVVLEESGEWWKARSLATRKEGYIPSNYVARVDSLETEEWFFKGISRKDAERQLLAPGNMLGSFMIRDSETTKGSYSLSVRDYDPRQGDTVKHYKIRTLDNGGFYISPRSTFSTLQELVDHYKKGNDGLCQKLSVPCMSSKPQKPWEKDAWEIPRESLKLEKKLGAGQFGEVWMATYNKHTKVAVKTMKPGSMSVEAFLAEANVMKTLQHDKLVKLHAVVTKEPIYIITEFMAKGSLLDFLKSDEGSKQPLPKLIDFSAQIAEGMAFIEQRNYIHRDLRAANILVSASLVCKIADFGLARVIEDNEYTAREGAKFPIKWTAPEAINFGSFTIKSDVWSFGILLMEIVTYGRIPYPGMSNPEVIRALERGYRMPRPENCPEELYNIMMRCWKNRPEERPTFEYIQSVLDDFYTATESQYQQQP

[34] = biological target: NUAK2 (human) (UniProt Q9H093)
Chain of NUAK2 (human) (Q9H093 whole entry, looked up): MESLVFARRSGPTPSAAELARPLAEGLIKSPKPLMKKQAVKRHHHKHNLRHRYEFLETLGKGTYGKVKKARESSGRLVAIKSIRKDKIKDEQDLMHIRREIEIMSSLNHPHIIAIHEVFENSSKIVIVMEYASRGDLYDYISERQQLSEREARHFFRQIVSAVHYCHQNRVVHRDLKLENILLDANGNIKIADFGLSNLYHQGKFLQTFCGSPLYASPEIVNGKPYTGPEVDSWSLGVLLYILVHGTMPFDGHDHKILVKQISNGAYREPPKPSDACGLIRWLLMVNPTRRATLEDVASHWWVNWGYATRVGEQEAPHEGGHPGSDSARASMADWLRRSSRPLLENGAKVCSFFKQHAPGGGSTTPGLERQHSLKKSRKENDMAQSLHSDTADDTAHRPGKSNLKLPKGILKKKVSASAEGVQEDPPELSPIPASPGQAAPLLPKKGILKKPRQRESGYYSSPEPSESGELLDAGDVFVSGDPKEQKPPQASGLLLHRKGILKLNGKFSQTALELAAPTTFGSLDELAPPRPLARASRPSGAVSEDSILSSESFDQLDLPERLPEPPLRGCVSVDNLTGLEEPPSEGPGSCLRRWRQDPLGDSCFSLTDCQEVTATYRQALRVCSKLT

[35] = biological target: ALK (human) (UniProt Q9UM73)
[36] = biological target: TLK2 (human) (UniProt Q86UE8)
[37] = biological target: TGFBR2 (human) (UniProt P37173)
[38] = biological target: STK10 (human) (UniProt O94804)
[39] = biological target: CLK3 (human) (UniProt P49761)
[40] = biological target: PDGFRA (human) (UniProt P16234)
[41] = biological target: PLK2 (human) (UniProt Q9NYY3)
[42] = biological target: EPHA6 (human) (UniProt Q9UF33)
Chain of EPHA6 (human) (Q9UF33 whole entry, looked up): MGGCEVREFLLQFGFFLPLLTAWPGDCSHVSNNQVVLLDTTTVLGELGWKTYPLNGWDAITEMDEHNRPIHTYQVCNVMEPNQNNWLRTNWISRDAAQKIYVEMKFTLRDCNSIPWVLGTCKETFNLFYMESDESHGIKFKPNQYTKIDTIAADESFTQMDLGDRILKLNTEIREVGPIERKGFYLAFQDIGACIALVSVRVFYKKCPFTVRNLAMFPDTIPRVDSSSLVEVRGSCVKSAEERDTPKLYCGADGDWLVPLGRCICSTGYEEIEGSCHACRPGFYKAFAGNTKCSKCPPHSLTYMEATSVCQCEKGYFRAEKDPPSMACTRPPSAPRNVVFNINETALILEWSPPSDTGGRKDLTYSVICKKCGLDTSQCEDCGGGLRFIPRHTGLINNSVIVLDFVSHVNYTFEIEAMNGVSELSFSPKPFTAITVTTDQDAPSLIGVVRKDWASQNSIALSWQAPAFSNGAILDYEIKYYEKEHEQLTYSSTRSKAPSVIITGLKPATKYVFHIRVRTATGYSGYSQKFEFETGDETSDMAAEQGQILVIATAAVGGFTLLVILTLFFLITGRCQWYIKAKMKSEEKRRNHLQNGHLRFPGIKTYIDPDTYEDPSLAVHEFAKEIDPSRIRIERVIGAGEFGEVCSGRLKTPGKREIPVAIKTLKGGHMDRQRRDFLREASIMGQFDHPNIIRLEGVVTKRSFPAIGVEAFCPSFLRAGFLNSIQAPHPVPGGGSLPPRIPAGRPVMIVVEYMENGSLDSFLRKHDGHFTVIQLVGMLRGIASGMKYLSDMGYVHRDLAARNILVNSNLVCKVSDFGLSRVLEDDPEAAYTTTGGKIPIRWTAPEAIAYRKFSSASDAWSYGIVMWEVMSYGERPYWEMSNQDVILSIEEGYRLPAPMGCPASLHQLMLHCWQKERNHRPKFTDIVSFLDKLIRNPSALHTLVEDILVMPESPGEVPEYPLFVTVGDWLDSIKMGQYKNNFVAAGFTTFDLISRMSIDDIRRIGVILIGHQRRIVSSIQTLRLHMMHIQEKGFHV

Chain of DYRK3 (human) (O43781 whole entry, looked up): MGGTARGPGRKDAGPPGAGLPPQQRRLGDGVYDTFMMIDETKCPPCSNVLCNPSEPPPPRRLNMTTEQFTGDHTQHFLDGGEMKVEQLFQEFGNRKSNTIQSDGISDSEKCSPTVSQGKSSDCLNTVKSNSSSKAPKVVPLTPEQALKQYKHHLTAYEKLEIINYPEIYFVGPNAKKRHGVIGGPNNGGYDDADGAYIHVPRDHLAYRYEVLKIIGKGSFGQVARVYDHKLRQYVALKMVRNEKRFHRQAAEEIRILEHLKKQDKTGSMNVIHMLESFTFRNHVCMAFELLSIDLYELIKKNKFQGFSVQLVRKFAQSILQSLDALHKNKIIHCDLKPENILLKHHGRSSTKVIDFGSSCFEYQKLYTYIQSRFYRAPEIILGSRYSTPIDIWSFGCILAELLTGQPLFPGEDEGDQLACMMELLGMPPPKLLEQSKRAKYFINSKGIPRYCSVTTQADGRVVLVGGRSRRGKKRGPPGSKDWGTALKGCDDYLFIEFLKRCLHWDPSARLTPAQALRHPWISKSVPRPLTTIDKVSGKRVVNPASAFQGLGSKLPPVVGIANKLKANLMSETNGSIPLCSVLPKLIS

## COc1cc2ncnc(Nc3ccc(Oc4ccccc4)cc3)c2cc1OC
[1]
  residual activity: 103%
[2]
  residual activity: 97.4%
[3]
  residual activity: 87.8%
[4]
  residual activity: 97.7%
[5]
  residual activity: 103%
[6]
  residual activity: 100%
[7]
  residual activity: 103%
[8]
  residual activity: 105%
[9]
  residual activity: 113%
[10]
  residual activity: 102%
[11]
  residual activity: 97.5%
[12]
  residual activity: 68.5%
[13]
  residual activity: 94.4%
[14]
  residual activity: 97.8%
[15]
  residual activity: 92%
[16]
  residual activity: 124%
[17]
  residual activity: 93.3%
[18]
  residual activity: 87.3%
[19]
  residual activity: 122%
[20]
  residual activity: 89%
[21]
  residual activity: 68.9%
[22]
  residual activity: 51.2%
[23]
  residual activity: 100%
[24]
  residual activity: 95.2%
[25]
  residual activity: 103%
[26]
  residual activity: 91.6%
[27]
  residual activity: 82.8%
[28]
  residual activity: 102%
[29]
  residual activity: 97.8%
[30]
  residual activity: 79.6%
[31]
  residual activity: 97.4%
[32]
  residual activity: 106%
[33]
  residual activity: 13.5%
[34]
  residual activity: 137%
[35]
  residual activity: 109%
[36]
  residual activity: 107%
[37]
  residual activity: 137%
[38]
  residual activity: 74%
[39]
  residual activity: 101%
[40]
  residual activity: 88.8%
[41]
  residual activity: 104%
[42]
  residual activity: 64.8%

## N#Cc1c[nH]c2c[nH]/c(=N\Cc3cccnc3)cc2/c1=N\c1ccc(F)c(Cl)c1
[1]
  residual activity: 87.9%
[2]
  residual activity: 91.2%
[3]
  residual activity: 92.4%
[4]
  residual activity: 97.6%
[5]
  residual activity: 96.3%
[6]
  residual activity: 96.9%
[7]
  residual activity: 95%
[8]
  residual activity: 93.6%
[9]
  residual activity: 97.6%
[10]
  residual activity: 105%
[11]
  residual activity: 87.7%
[12]
  residual activity: 89%
[13]
  residual activity: 92%
[14]
  residual activity: 86.1%
[15]
  residual activity: 82.5%
[16]
  residual activity: 113%
[17]
  residual activity: 91.6%
[18]
  residual activity: 117%
[19]
  residual activity: 114%
[20]
  residual activity: 101%
[21]
  residual activity: 79.1%
[22]
  residual activity: 67.2%
[23]
  residual activity: 88%
[24]
  residual activity: 106%
[25]
  residual activity: 101%
[26]
  residual activity: 95.6%
[27]
  residual activity: 92.6%
[28]
  residual activity: 99.8%
[29]
  residual activity: 96.3%
[30]
  residual activity: 106%
[31]
  residual activity: 90.2%
[32]
  residual activity: 124%
[33]
  residual activity: 92.5%
[34]
  residual activity: 135%
[35]
  residual activity: 107%
[36]
  residual activity: 106%
[37]
  residual activity: 118%
[38]
  residual activity: 52.8%
[39]
  residual activity: 96.7%
[40]
  residual activity: 94.3%
[41]
  residual activity: 110%
[42]
  residual activity: 76.2%

## CN(C)S(=O)(=O)c1ccc2c(c1)/C(=C/c1cc3c([nH]1)CCCC3)C(=O)N2
[1]
  residual activity: 98.9%
[2]
  residual activity: 100%
[3]
  residual activity: 96.5%
[4]
  residual activity: 86.4%
[5]
  residual activity: 99.1%
[6]
  residual activity: 102%
[7]
  residual activity: 105%
[8]
  residual activity: 66.8%
[9]
  residual activity: 107%
[10]
  residual activity: 61.4%
[11]
  residual activity: 89.1%
[12]
  residual activity: 57.4%
[13]
  residual activity: 104%
[14]
  residual activity: 89.6%
[15]
  residual activity: 116%
[16]
  residual activity: 112%
[17]
  residual activity: 54.6%
[18]
  residual activity: 78.5%
[19]
  residual activity: 5.59%
[20]
  residual activity: 60.7%
[21]
  residual activity: 94.6%
[22]
  residual activity: 20.9%
[23]
  residual activity: 99.7%
[24]
  residual activity: 99.4%
[25]
  residual activity: 103%
[26]
  residual activity: 47.7%
[27]
  residual activity: 23.6%
[28]
  residual activity: 95.2%
[29]
  residual activity: 93.2%
[30]
  residual activity: 89.2%
[31]
  residual activity: 76.3%
[32]
  residual activity: 101%
[33]
  residual activity: 31.6%
[34]
  residual activity: 95.1%
[35]
  residual activity: 43.6%
[36]
  residual activity: 102%
[37]
  residual activity: 129%
[38]
  residual activity: 9.53%
[39]
  residual activity: 92.9%
[40]
  residual activity: 93.7%
[41]
  residual activity: 94.4%
[42]
  residual activity: 61.9%
